Patent US12653776B2, “Methods of treatment of cancer by continuous infusion of coenzyme Q10” (priority 2013, dated 2026)
Read-outs that look alike come from different tables or passages of the source.

Assays:
[1] = test system: acute myeloid leukemia (KG1) cells; assay: Acute myeloid leukemia (KG1) mouse model, survival; assay type: in vivo, mice
Method: Human acute erythro-leukemia (K562) and acute myeloid leukemia (KG1) cells (1×10^6) were injected intraperitoneally in immune-compromised mice. Engraftment was confirmed by complete blood counts, presence of anemia, and clinical assessment of animal behavior.
The mice (total n=120 for each model respectively) were randomized into four (n=30/group) treatment groups. Each treatment regimen was administered in a four week cycle with three weeks of treatment, one week off: • 1. Untreated (control) • 2. Coenzyme Q10 (4%, administered at 75 mg/kg, once/day by continuous infusion) • 3. Chemotherapy (cytarabine/AraC 25 mg/kg, 5×/week; and adriamycin/daunorubicin 5 mg/kg; 1×/wk) • 4. Coenzyme Q10 (4%, administered at 75 mg/kg, once/day by continuous infusion)+chemotherapy (cytarabine/AraC 25 mg/kg, 5×/week; and adriamycin/daunorubicin 5 mg/kg; 1×/wk)
All dosings were intravenous and followed a protocol of 3 week treatment followed by 1 week rest. Leukemia was monitored by pallor and blood smears, and hone marrow smears were performed post-mortem for analysis using Wright's stain. Survival results from the study of mice with acute erythroleukemia are show in FIG. 5. Day 1 is the first day of treatment with coenzyme Q10 and/or chemotherapy.

[2] = test system: liver chloromas (MIA C51 clone); assay: Liver chloroma rat model, survival; assay type: in vivo, rats
From the text: The effect of dosing schedule of coenzyme Q10 was also investigated in rats bearing liver or lung chloromas. Rats were transplanted with liver or lung clones of malignant chloromas derived from a stable myelogenous leukemia (chloroleukemia) cell line, MIA C51 (see. e.g., Jimenez and Yunis (1987) Science 238: 1278-1280). The clones have been selected to home to and form tumors in the liver or lungs, respectively. Rats were randomized to receive either no treatment, injection 3 times a day with 40 mg/mL (4%) coenzyme Q10, or continuous infusion of 40 mg/mL (4%) coenzyme Q10 via an implanted pump, to deliver for each regimen a total dose of 50 mg/kg body weight per day. […] For example, at Day 189 in the liver chloroma model, 45 of 50 rats were alive in the continuous infusion treatment group compared with 26 of 50 rats alive in the injection treatment group. All control animals were dead at Day 30.

advanced solid tumors = assay: First-in-human Phase 1 study (CTL0510), 4-hour IV infusion 3 times weekly: tumor response; assay type: in vivo
Method: The first-in-human Phase 1 study with coenzyme Q10 nanosuspension (40 mg/ml) was conducted in 50 patients with advanced solid tumors. The objectives were to assess the safety, maximum tolerated dose, PK and PD of coenzyme Q10, specifically a 4% coenzyme Q10 nanosuspension formulation (as described in WO 2011/112900, the entire contents of which are expressly incorporated herein by reference), administered as a 4-hour IV infusion 3 times weekly in 28-day cycles. Nine dose levels were explored ranting from 5.62 to 139 mg/kg. Plasma concentration profiles and PK parameters were determined from blood samples collected pre-dose and at intervals to 48 hours post-dose.

[3] = Method: In the Phase 1a portion of the trial, patients who meet eligibility parameters receive 2 consecutive 48-hour infusions of coenzyme Q10 twice weekly on Monday and Wednesday (i.e., Days 1, 3, 8, 10, 15, 17, 22, and 24), essentially receiving coenzyme Q10 treatment for 96 hours per week of each 28-day cycle. At each dose level of Arm 1 and Arm 2, patients are treated for either 8 hours at minimum of outpatient monitoring or inpatient monitoring for the first 24-hrs of the first infusion of Cycle 1. All other treatments are administered in an outpatient setting. Dose limiting toxicities are assessed during Cycle 1.
The study is a standard 3+3 dose escalation design with the dose escalated in successive cohorts of 3 to 6 patients each. Toxicity at each dose level is graded according to National Cancer Institute Common Terminology Criteria for Adverse Events (CTCAE v4.02). Safety oversight is provided by the Cohort Review Committee (CRC). The CRC reviews and confirms all DLTs and monitor safety throughout the study (including Arm 2).
The 2 doses are administered over 4 consecutive days, i.e., the first dose on Monday-Wednesday and the second dose on Wednesday-Friday of each week. The study drug is administered undiluted via a central venous access device and the infusion rate is controlled by a programmable ambulatory infusion pump such as the CADD Prizm VIP (model 6101) ambulatory pump.
At each dose level of Arm 1 and Arm 2, patients are treated for either 8 hours at minimum of outpatient monitoring or inpatient monitoring for the first 24-hrs of the first infusion of Cycle 1. Patients are monitored for dose-limiting toxicity (DLT) or an AE that requires prolonged hospitalization. If no reaction to coenzyme Q10 develops, the patient will be discharged.
For the second dose of each week (i.e., on Days 3, 10, 17, and 24 of the cycle) the total dose volume are given over 48 hours with no loading dose as indicated in Table 6 below. Coenzyme Q10 Nanosuspension for Injection Dose Cohorts (Arm 1; Monotherapy).

chloroleukemia (MIA C51) = conditions: IP
AML or ALL = assay: Phase 1a/b study, 18 day continuous infusion in relapsed/refractory AML or ALL; conditions: at the end of the study
Method: This study is conducted in the inpatient setting for the first 10 patients enrolled on monotherapy to closely monitor the coagulation profile, gain experience and collect safety data during the first full cycle of therapy (21 days) and at least 30 days of post-dosing follow-up Platelet count and coagulation parameters are obtained every day in the inpatient setting. […] Treatment may continue in either the inpatient and/or outpatient setting for subsequent patients enrolled on study. Platelet count and coagulation are monitored at least 3 times/week in the outpatient setting and daily in the inpatient setting.
Each cycle of monotherapy is 21 days in length. […] Each cycle of combination therapy is 28 days in length. […] Patients who experience a DLT during cycle 1 of monotherapy or cycle 1 of combination therapy are discontinued.
On Day 1 of each cycle (i.e., Monday) the dose consists of an accelerated rate of infusion of 25% of the total dose volume over 1 hour with the remaining 75% of the dose volume infused over 23 hours. Subsequent daily doses (Days 2 through 18) are infused uniformly over 24 hours (no accelerated rate in the first hour). […] The principal investigator will consult with the Medical Monitor and the Chair of the DSMB to determine the appropriate dose level for each patient.

[4] = combination with gemcitabine, Dose level 1 (50 mg/kg)

coenzyme Q10
survival ([1]; coenzyme Q10 75 mg/kg/day continuous infusion + chemotherapy (cytarabine + daunorubicin) vs other groups incl. chemotherapy alone, p<0.00001): significant increase in survival | survival ([1]; coenzyme Q10 alone (4%, 75 mg/kg once/day by continuous infusion) vs chemotherapy (cytarabine + daunorubicin)): improved survival compared to chemotherapy | survival compared to control ([2]; both continuous infusion and injection 3 times a day, 50 mg/kg per day): significantly prolonged survival | rats alive at Day 189 ([2]; continuous infusion of 40 mg/mL (4%) coenzyme Q10, 50 mg/kg body weight per day): 45 of 50 | effectiveness of continuous infusion regimen ([2]; continuous infusion vs injection 3 times a day, 50 mg/kg per day): much more effective than the injection regimen | rats alive at Day 189 ([2]; injection 3 times a day of 40 mg/mL (4%) coenzyme Q10, total 50 mg/kg body weight per day): 26 of 50 | progressive disease (advanced solid tumors; 15 patients): 30% | best response stable disease (advanced solid tumors; 23 of 50 patients): 46% | partial response (advanced solid tumors; patient with a sarcoma): One | safety issues ([3]; combination with 5-Fluorouracil, Dose level 1 (50 mg/kg)): No 5FU-related issued | dose level evaluation ([3]; combination with 5-Fluorouracil, Dose level 2 (66 mg/kg)): Dose level cleared | safety issues ([3]; combination with docetaxel, Dose level 1 (50 mg/kg)): No docetaxel-related issued | issues or DLTs ([3]; combination with docetaxel, Dose level 2 (66 mg/kg)): No issues or DLTs | issues or DLTs ([3]; combination with docetaxel, Dose level 3 (kg mg/kg), evaluation ongoing): No issues or DLTs | dose-limiting toxicity (DLT) [3, 4]: no DLT | thrombocytopenia (gemcitabine-related adverse event) [3, 4]: Mild to moderate thrombocytopenia | bleeding events ([3]; continuous infusion protocol): No bleeding events were reported | coagulation abnormalities ([3]; continuous infusion protocol with aggressive pre-loading or treatment with Vitamin K): minimal coagulation abnormalities | overall safety ([3]; current dose levels, continuous infusion): safe at the current levels | dose-limiting toxicity (DLT) ([3]; monotherapy Dose Level 1 (66 mg/kg), 9 subjects, grade 3 GGT): 1 DLT | dose-limiting toxicity (DLT) ([3]; monotherapy Dose Level 2 (88 mg/kg), 4 subjects): 0 DLT | dose-limiting toxicity (DLT) ([3]; monotherapy Dose Level 3 (110 mg/kg), 4 subjects, evaluation ongoing): 0 DLT | safety and tolerability ([3]; monotherapy and combination therapy, initial results): safe and well tolerated | triglycerides ([3]; no clinical significance): Transient elevation of triglycerides | adverse events with increased infusion duration ([3]; vs four hour infusion at higher rate, expected at the end of the ongoing study): decrease adverse events | survival in animals with metastasis to the lungs and liver (chloroleukemia (MIA C51); 50 mg/kg/day): significant increase in survival | limb paralysis (paraplegia due to brain metastasis) (chloroleukemia (MIA C51); (St) mg/kg/day): complete resolution of limb paralysis | outcomes by standard criteria (AML or ALL; e.g., decreased tumor burden): clinically relevant outcomes | adverse events with increased infusion duration (AML or ALL; vs four hour infusion at higher rate): decrease adverse events
